Measured values as given in ChEMBL document CHEMBL5291721, “A preclinical secondary pharmacology resource illuminates target-adverse drug reaction associations of marketed drugs” (Nat Commun, 2023).

What was measured:
B2 bradykinin receptor = target: T1, B2 bradykinin receptor (Homo sapiens, UniProt P30411)
T1 sequence (P30411 whole entry): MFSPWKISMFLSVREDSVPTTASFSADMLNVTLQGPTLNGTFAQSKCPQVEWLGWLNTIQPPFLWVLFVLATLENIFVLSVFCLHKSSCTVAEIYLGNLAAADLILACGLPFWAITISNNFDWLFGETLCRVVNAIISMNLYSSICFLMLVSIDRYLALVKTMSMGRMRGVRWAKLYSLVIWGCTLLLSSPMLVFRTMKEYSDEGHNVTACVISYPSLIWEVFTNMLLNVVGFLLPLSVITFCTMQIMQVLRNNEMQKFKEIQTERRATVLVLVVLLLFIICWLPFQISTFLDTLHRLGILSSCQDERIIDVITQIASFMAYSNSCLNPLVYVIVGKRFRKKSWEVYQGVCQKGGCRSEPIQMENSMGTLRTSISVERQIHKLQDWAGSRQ

[1] = target: T2, Prostaglandin G/H synthase 1 (Rattus norvegicus, UniProt Q63921); type: functional
T2 sequence (Q63921 whole entry): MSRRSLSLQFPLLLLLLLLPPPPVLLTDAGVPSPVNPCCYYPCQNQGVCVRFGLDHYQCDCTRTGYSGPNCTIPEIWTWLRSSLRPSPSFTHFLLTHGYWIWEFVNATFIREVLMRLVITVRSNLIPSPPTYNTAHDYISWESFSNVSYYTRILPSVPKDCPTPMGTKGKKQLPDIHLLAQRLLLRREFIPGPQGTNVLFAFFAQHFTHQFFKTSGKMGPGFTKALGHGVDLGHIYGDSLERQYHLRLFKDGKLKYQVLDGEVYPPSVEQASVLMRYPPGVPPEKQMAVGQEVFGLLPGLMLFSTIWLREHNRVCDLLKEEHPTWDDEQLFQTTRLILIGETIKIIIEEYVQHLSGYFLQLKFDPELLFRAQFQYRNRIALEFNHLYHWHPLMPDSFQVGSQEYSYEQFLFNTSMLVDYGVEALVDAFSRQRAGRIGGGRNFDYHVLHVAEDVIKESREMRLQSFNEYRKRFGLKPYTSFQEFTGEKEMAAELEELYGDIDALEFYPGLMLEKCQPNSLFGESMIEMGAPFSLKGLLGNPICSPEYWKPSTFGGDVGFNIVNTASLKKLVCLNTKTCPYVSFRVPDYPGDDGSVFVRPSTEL

[2] = target: T3, Alpha-2A adrenergic receptor (Homo sapiens, UniProt P08913); type: functional, cell-based
T3 sequence (P08913 whole entry): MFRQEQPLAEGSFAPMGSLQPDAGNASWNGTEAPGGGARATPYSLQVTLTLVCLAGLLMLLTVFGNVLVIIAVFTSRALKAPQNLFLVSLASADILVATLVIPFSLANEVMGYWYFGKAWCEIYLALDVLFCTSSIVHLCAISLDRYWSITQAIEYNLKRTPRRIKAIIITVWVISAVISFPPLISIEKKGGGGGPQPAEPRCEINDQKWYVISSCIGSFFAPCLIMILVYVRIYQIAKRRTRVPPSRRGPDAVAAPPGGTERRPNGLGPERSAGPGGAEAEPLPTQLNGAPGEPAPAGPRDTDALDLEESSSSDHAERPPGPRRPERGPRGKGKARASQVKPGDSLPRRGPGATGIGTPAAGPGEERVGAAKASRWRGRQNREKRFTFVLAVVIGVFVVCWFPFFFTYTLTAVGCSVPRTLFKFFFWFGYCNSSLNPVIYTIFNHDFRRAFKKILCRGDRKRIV

[3] = target: 5-hydroxytryptamine receptor 2B (Homo sapiens, UniProt P41595); type: functional, cell-based
[4] = target: T4, Equilibrative nucleoside transporter 1 (Homo sapiens, UniProt Q99808)
T4 sequence (Q99808 whole entry): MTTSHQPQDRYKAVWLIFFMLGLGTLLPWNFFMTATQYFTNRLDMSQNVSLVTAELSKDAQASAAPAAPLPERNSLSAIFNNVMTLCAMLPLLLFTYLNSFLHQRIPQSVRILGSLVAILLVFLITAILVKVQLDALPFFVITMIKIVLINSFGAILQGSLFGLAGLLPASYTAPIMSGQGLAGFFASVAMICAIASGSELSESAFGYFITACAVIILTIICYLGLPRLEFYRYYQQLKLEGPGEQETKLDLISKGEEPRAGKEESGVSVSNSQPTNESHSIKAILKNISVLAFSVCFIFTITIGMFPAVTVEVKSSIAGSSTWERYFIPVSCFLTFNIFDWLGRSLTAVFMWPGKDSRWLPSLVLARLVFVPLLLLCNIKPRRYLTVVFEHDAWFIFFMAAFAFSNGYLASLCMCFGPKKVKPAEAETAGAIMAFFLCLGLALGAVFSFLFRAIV

[5] = target: T5, Gastrin/cholecystokinin type B receptor (Homo sapiens, UniProt P32239)
T5 sequence (P32239 whole entry): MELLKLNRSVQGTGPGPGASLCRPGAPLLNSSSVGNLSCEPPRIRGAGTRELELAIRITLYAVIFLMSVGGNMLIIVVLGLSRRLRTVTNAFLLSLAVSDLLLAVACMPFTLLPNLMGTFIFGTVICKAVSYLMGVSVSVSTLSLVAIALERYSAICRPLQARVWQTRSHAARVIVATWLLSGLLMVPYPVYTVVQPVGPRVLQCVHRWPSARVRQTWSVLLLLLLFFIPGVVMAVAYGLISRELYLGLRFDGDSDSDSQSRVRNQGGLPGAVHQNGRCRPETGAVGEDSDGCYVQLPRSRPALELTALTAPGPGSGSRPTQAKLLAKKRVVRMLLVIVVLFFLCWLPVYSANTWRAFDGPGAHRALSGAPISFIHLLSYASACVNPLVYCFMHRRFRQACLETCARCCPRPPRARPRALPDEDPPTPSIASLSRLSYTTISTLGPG

[6] = target: T6, 5-hydroxytryptamine receptor 2C (Homo sapiens, UniProt P28335)
T6 sequence (P28335 whole entry): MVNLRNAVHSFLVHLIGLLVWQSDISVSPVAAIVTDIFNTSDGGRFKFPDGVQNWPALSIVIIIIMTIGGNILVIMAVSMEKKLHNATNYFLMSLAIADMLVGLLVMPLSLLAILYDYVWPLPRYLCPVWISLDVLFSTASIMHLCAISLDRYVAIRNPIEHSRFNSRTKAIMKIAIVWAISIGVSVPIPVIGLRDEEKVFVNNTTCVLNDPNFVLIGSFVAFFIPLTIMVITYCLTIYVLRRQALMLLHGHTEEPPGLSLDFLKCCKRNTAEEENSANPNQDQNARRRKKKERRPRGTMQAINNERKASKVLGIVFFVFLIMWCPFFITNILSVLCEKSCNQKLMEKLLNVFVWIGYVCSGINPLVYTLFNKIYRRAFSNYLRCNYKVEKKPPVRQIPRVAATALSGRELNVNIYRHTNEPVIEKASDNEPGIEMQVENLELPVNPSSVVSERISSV

[7] = target: Beta-1 adrenergic receptor (Homo sapiens, UniProt P08588); type: functional
Further: assay procedure not described here.

Sequence of Beta-1 adrenergic receptor (P08588 whole entry): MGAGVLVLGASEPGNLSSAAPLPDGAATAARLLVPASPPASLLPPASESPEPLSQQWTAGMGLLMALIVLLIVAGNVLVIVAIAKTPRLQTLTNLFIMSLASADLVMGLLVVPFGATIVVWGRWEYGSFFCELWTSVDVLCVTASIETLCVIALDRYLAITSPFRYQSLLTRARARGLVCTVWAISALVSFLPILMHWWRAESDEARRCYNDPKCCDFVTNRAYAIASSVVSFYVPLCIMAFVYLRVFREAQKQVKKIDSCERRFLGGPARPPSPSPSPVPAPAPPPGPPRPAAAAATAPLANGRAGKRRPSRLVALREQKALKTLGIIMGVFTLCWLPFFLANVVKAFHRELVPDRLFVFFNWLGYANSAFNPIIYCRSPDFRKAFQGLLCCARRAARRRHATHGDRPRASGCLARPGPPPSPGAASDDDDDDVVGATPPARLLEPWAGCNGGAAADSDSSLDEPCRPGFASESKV
Sequence of 5-hydroxytryptamine receptor 2B (P41595 whole entry): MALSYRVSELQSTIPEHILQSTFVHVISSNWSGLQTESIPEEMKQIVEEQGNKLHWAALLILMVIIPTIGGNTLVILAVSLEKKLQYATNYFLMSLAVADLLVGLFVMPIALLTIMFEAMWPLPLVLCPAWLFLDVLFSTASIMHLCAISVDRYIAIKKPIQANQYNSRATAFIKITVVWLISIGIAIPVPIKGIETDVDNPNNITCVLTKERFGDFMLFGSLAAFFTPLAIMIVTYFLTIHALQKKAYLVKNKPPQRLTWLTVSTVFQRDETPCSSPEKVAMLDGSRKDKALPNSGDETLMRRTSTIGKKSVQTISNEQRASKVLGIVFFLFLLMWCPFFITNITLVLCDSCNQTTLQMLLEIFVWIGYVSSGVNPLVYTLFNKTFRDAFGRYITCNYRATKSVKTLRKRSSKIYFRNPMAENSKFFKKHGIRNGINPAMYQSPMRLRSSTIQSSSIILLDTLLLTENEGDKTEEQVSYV

SMILES | AC50 (B2 bradykinin receptor) | AC50 [1] | AC50 [2] | AC50 [3] | AC50 [4] | AC50 [5] | AC50 [6] | AC50 [7]
CC(=O)SC[C@@H](C)C(=O)N1CCC[C@H]1C(=O)N[C@@H](Cc1ccccc1)C(=O)O | > 30 µM | > 30 µM | > 30 µM | > 30 µM | > 30 µM | > 30 µM | > 30 µM | > 30 µM
NC(=O)CN1CCCC1=O | > 30 µM | > 30 µM | > 30 µM | > 30 µM |  | > 30 µM | > 30 µM | > 30 µM
C[N@+]1(CCF)[C@@H]2CC[C@H]1C[C@@H](OC(=O)C(O)(c1ccccc1)c1ccccc1)C2 | > 30 µM | > 10 µM | > 30 µM | > 30 µM | > 30 µM | > 30 µM | > 30 µM | > 30 µM
CC(=O)O[C@H](CC(=O)[O-])C[N+](C)(C)C [ACETYLCARNITINE] | > 30 µM | > 10 µM | > 30 µM | > 30 µM | > 30 µM | > 30 µM | > 30 µM | > 30 µM
Cn1c(=O)cc(N2CCC[C@@H](N)C2)n(Cc2ccccc2C#N)c1=O [ALOGLIPTIN] | > 30 µM | > 30 µM |  |  | > 30 µM | > 30 µM | > 30 µM | > 10 µM
CCN1CCCC1CNC(=O)c1cc(S(=O)(=O)CC)c(N)cc1OC (stereo not drawn) [AMISULPRIDE] | > 30 µM | 29 µM | 13 µM |  | > 30 µM | > 30 µM | > 30 µM | > 30 µM
O=C(O)CCNC(=O)c1ccccc1 [BETAMIPRON] | > 30 µM | > 10 µM | > 30 µM | > 30 µM | > 30 µM | > 30 µM | > 30 µM | > 30 µM
O=C1CN=C(c2ccccn2)c2cc(Br)ccc2N1 [BROMAZEPAM] | > 10 µM | > 10 µM | > 10 µM | > 10 µM | > 10 µM |  | > 30 µM | > 10 µM
CC(=O)[C@@]1(O)CC[C@H]2[C@@H]3C=C(Cl)C4=CC(=O)[C@@H]5C[C@@H]5[C@]4(C)[C@H]3CC[C@@]21C [CYPROTERONE] | > 10 µM | > 10 µM | > 10 µM | > 10 µM | > 10 µM |  | > 30 µM | > 10 µM
COc1cc2ncnc(Nc3ccc(F)c(Cl)c3)c2cc1NC(=O)/C=C/CN1CCCCC1 [DACOMITINIB ANHYDROUS] |  | > 30 µM |  |  |  |  |  | > 30 µM
